SMILES strings stand for the structures. Like-named read-outs stand apart in the source and are kept apart here. Where a SMILES comes first, the peptide text is derived from it.

This is an account of results in patent US20240301003A1 (NoNO Inc., priority 2021, published 2024).

For series [1] the following is noted: cited from earlier work.
Series [2] can be described thus: Renal biomarkers or electrolyte imbalance after administration to rats (Table 7). Format: in vivo. The procedure:
NoNO42 was tested for effect on various renal biomarkers or electrolyte imbalance in comparison with nerinetide after administration to rats as shown in Table 7.

The conditions of series [3]: rat, in vivo.
Procedure: Blood plasma samples were collected before injection and at 10, 15, 20, 30, 45, 60 min post-dose. Each point represents the mean (±SD) of three animals per group.
The target in the next series is plasmin (Homo sapiens, UniProt P00747). Kind of series: in vitro. Conditions: isolated enzyme plasmin.
The conditions of series [4]: rat, in vivo; for Weight: iv.

plasmin, sequence (P00747 581-810 limits assumed, species assumed): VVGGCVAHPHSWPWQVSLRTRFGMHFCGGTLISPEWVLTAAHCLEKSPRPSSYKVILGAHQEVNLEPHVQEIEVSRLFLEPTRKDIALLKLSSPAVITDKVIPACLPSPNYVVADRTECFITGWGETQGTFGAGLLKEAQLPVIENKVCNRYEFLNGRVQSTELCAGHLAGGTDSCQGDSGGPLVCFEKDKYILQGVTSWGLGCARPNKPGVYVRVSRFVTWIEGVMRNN
plasmin, sequence (P00747 97-580 partner limits assumed, species assumed): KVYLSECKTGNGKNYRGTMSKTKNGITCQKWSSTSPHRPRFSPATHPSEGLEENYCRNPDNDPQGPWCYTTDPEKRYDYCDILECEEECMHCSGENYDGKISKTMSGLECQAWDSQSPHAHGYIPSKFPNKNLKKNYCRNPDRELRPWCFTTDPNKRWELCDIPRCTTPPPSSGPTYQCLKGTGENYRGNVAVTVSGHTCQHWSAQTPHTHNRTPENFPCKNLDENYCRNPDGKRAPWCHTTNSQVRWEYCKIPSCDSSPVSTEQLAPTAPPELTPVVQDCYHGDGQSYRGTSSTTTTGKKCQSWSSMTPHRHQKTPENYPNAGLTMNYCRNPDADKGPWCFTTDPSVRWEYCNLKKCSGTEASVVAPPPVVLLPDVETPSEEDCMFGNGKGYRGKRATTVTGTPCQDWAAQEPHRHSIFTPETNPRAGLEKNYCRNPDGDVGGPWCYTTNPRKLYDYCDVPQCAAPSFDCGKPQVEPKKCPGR

In general, half-life refers to the time in which the quantity being followed falls by half. `N[C@@H](Cc1ccc(O)c(O)c1)C(=O)O` [Levodopa]: the half-life in series [1] was 1.5 h.
Usually amount remaining stands for the share of the starting amount still present when the sample was taken. On to `CC[C@H](C)[C@H](NC(=O)[C@H](CO)NC(=O)[C@H](CO)NC(=O)[C@H](CC(C)C)NC(=O)[C@@H](CCCCN)NC(=O)[C@H](CCCNC(=N)N)NC(=O)[C@H](CCCNC(=N)N)NC(=O)[C@@H](CCCNC(=N)N)NC(=O)[C@H](CCC(N)=O)NC(=O)[C@@H](CCCNC(=N)N)NC(=O)[C@H](CCCNC(=N)N)NC(=O)[C@H](CCCCN)NC(=O)[C@H](CCCCN)NC(=O)[C@@H](CCCNC(=N)N)NC(=O)CNC(=O)[C@@H](N)Cc1ccc(O)cc1)C(=O)N[C@@H](CCC(=O)O)C(=O)N[C@@H](CO)C(=O)N[C@@H](CC(=O)O)C(=O)N[C@H](C(=O)O)C(C)C` [NoNO42] (HELM PEPTIDE1{Y.G.[dR].K.K.R.[dR].Q.[dR].R.R.[dK].L.S.S.I.E.S.D.V}$$$$V2.0; N-terminus and C-terminus assumed), for which, in series [2] (rat, in vivo), the “renal biomarkers or electrolyte imbalance in comparison with nerinetide” value was “No significant difference was observed”. Further, the Creatinine was 0.2 mg/dL in series [2] (rat, in vivo, iv, 3.8 mg/kg) and 0.2 mg/dL in series [2] (rat, in vivo, iv, 7.6 mg/kg). The iCa is on record as 1.47 mmol/L in series [2] (rat, in vivo, iv, 5.7 mg/kg); 1.43 mmol/L in series [2] (rats, IV 3.8 mg/kg, Pre); 1.46 mmol/L in series [2] (rats, IV 5.7 mg/kg, Day 14); 1.46 mmol/L in series [2] (rats, IV 5.7 mg/kg, Pre); 1.46 mmol/L in series [2] (rats, IV 7.6 mg/kg, Day 4). The tCO2 amounted to 33.7 mmol/L in series [2] (rat, in vivo, iv, 7.6 mg/kg); 35.7 mmol/L in series [2] (rats, IV 7.6 mg/kg, Day 4); 35.7 mmol/L in series [2] (rats, IV 7.6 mg/kg, Day 14). The “Na+” value in series [2] (rats, IV 3.8 mg/kg, Day 4) was 137.3 mmol/L; in series [2] (rats, IV 5.7 mg/kg, Day 4) it was 137.3 mmol/L; in series [2] (rats, IV 7.6 mg/kg, Day 14) it was 137.3 mmol/L. Moreover, the Cl was 98.3 mmol/L in series [2] (rats, IV 3.8 mg/kg, Pre) and 98.3 mmol/L in series [2] (rats, IV 7.6 mg/kg, Day 14). The compound also registered a Hgb in series [2] (rats, IV 7.6 mg/kg, Day 14) of 13.4 g/dL. In addition, the “CMax of NoNO42 5.7 mg/kg versus nerinetide 7.6 mg/kg” value in series [3] was “same CMax”. The amount remaining at 0.5 h, 65 ug/ml on plasmin was around 100%. Also, the “weight gain compared with nerinetide” value in series [4] was “No significant difference was seen”. Moreover, the Weight is given as 342.3 grams in series [4] (3.8 mg/kg), 341.7 grams in series [4] (5.7 mg/kg) and 331.0 grams in series [4] (7.6 mg/kg).
